Literature values, collected in patent US20190054051A1, “DOPA Formulations for Treatments of Parkinson's Disease” (The Board of Trustees of the Leland Stanford Junior …, priority 2017, published 2019).

What was measured:
[1] = cited from earlier work
animal models of PD = details: previously reported; cited from earlier work

SMILES | solubility in water [1] | L-DOPA induced dyskinesia (dyskinetic behavior following DOPA treatment) (animal models of PD)
C[C@@](Cc1ccc(O)c(O)c1)(NN)C(=O)O [Carbidopa, N-amino-α-methyl-3-hydroxy-L-tyrosine monohydrate] | slightly soluble in water | –
NC(N)=Nc1nc(CSCCC(N)=NS(N)(=O)=O)cs1 [famotidine] | – | decreased the dyskinetic behavior
